PubChem BioAssay AID1259407 (Chemical Carcinogenesis Research Information System (CCRIS), 2018)
The source made the active and inactive calls. How the calls were made is not given here.

Test system: CCRIS mutagenicity, Ames/micronucleus/aberration tests
Test: CCRIS mutagenicity studies
[1] = Test System: AMES SALMONELLA TYPHIMURIUM, Strain/Indicator: TA100, Metabolic Activation: NONE, Method: STANDARD PLATE
[2] = Test System: AMES SALMONELLA TYPHIMURIUM, Strain/Indicator: TA98, Metabolic Activation: NONE, Method: STANDARD PLATE
[3] = Test System: AMES SALMONELLA TYPHIMURIUM, Strain/Indicator: TA98, Metabolic Activation: NONE, Method: PREINCUBATION
[4] = Test System: AMES SALMONELLA TYPHIMURIUM, Strain/Indicator: TA100, Metabolic Activation: NONE, Method: PREINCUBATION
[5] = Test System: AMES SALMONELLA TYPHIMURIUM, Strain/Indicator: TA1535, Metabolic Activation: NONE, Method: PREINCUBATION
[6] = Test System: AMES SALMONELLA TYPHIMURIUM, Strain/Indicator: TA1537, Metabolic Activation: NONE, Method: PREINCUBATION

CC(Cl)C(=O)NCc1ccccc1 (stereo not drawn)
mutagenic call (Test System: AMES SALMONELLA TYPHIMURIUM, Strain/Indicator: TA100, Metabolic Activation: MOUSE, LIVER, S-9, AROCLOR 1254, Method: STANDARD PLATE): inactive; negative
mutagenic call [1]: inactive; negative

COc1nsc2c(N)cccc12
mutagenic call (Test System: AMES SALMONELLA TYPHIMURIUM, Strain/Indicator: TA98, Metabolic Activation: S-9, Method: STANDARD PLATE): active; positive

COc1ccc2[nH]c3c(C)cc(N)c(C)c3c2c1
mutagenic call [2]: inactive; negative
mutagenic call (Test System: AMES SALMONELLA TYPHIMURIUM, Strain/Indicator: TA98, Metabolic Activation: RAT LIVER S-9, AROCLOR 1254, Method: STANDARD PLATE): active; positive
mutagenic call [1]: inactive; negative
mutagenic call (Test System: AMES SALMONELLA TYPHIMURIUM, Strain/Indicator: TA100, Metabolic Activation: RAT LIVER S-9, AROCLOR 1254, Method: STANDARD PLATE): inactive; negative

NNC(=O)CNc1ccc2ccccc2c1
mutagenic call [2]: inactive; negative
mutagenic call (Test System: AMES SALMONELLA TYPHIMURIUM, Strain/Indicator: TA98, Metabolic Activation: RAT, LIVER, S-9, AROCLOR 1254, Method: STANDARD PLATE): inactive; negative
mutagenic call [1]: inactive; negative
mutagenic call (Test System: AMES SALMONELLA TYPHIMURIUM, Strain/Indicator: TA100, Metabolic Activation: RAT, LIVER, S-9, AROCLOR 1254, Method: STANDARD PLATE): inactive; negative
mutagenic call (Test System: AMES SALMONELLA TYPHIMURIUM, Strain/Indicator: TA1537, Metabolic Activation: NONE, Method: STANDARD PLATE): inactive; negative
mutagenic call (Test System: AMES SALMONELLA TYPHIMURIUM, Strain/Indicator: TA1537, Metabolic Activation: RAT, LIVER, S-9, AROCLOR 1254, Method: STANDARD PLATE): inactive; negative

FC(Cl)(Cl)Cl
mutagenic call (Test System: AMES SALMONELLA TYPHIMURIUM, Strain/Indicator: TA98, Metabolic Activation: HAMSTER, LIVER, S-9, AROCLOR 1254 (10%), Method: PREINCUBATION): inactive; negative
mutagenic call (Test System: AMES SALMONELLA TYPHIMURIUM, Strain/Indicator: TA98, Metabolic Activation: NONE, Method: GAS EXPOSURE): inactive; negative
mutagenic call [3]: inactive; negative
mutagenic call (Test System: AMES SALMONELLA TYPHIMURIUM, Strain/Indicator: TA98, Metabolic Activation: RAT LIVER S-9, PHENOBARBITAL AND BETA-NAPHTHOFLAVONE (40%), Method: GAS EXPOSURE): inactive; negative
mutagenic call (Test System: AMES SALMONELLA TYPHIMURIUM, Strain/Indicator: TA98, Metabolic Activation: RAT, LIVER, S-9, AROCLOR 1254 (10%), Method: PREINCUBATION): inactive; negative
mutagenic call (Test System: AMES SALMONELLA TYPHIMURIUM, Strain/Indicator: TA100, Metabolic Activation: HAMSTER, LIVER, S-9, AROCLOR 1254 (10%), Method: PREINCUBATION): inactive; negative
mutagenic call (Test System: AMES SALMONELLA TYPHIMURIUM, Strain/Indicator: TA100, Metabolic Activation: NONE, Method: GAS EXPOSURE): inactive; negative
mutagenic call [4]: inactive; negative
mutagenic call (Test System: AMES SALMONELLA TYPHIMURIUM, Strain/Indicator: TA100, Metabolic Activation: RAT LIVER S-9, PHENOBARBITAL AND BETA-NAPHTHOFLAVONE (40%), Method: GAS EXPOSURE): inactive; negative
mutagenic call (Test System: AMES SALMONELLA TYPHIMURIUM, Strain/Indicator: TA100, Metabolic Activation: RAT, LIVER, S-9, AROCLOR 1254 (10%), Method: PREINCUBATION): inactive; negative
mutagenic call (Test System: AMES SALMONELLA TYPHIMURIUM, Strain/Indicator: TA1535, Metabolic Activation: HAMSTER, LIVER, S-9, AROCLOR 1254 (10%), Method: PREINCUBATION): inactive; negative
mutagenic call (Test System: AMES SALMONELLA TYPHIMURIUM, Strain/Indicator: TA1535, Metabolic Activation: NONE, Method: GAS EXPOSURE): inactive; negative
mutagenic call [5]: inactive; negative
mutagenic call (Test System: AMES SALMONELLA TYPHIMURIUM, Strain/Indicator: TA1535, Metabolic Activation: RAT LIVER S-9, PHENOBARBITAL AND BETA-NAPHTHOFLAVONE (40%), Method: GAS EXPOSURE): inactive; negative
mutagenic call (Test System: AMES SALMONELLA TYPHIMURIUM, Strain/Indicator: TA1535, Metabolic Activation: RAT, LIVER, S-9, AROCLOR 1254 (10%), Method: PREINCUBATION): inactive; negative
mutagenic call (Test System: AMES SALMONELLA TYPHIMURIUM, Strain/Indicator: TA1537, Metabolic Activation: HAMSTER, LIVER, S-9, AROCLOR 1254 (10%), Method: PREINCUBATION): inactive; negative
mutagenic call (Test System: AMES SALMONELLA TYPHIMURIUM, Strain/Indicator: TA1537, Metabolic Activation: NONE, Method: GAS EXPOSURE): inactive; negative
mutagenic call [6]: inactive; negative
mutagenic call (Test System: AMES SALMONELLA TYPHIMURIUM, Strain/Indicator: TA1537, Metabolic Activation: RAT LIVER S-9, PHENOBARBITAL AND BETA-NAPHTHOFLAVONE (40%), Method: GAS EXPOSURE): inactive; negative
mutagenic call (Test System: AMES SALMONELLA TYPHIMURIUM, Strain/Indicator: TA1537, Metabolic Activation: RAT, LIVER, S-9, AROCLOR 1254 (10%), Method: PREINCUBATION): inactive; negative
mutagenic call (Test System: E.COLI, Strain/Indicator: WP2UVRA, Metabolic Activation: NONE, Method: GAS EXPOSURE): inactive; negative
mutagenic call (Test System: E.COLI, Strain/Indicator: WP2UVRA, Metabolic Activation: RAT LIVER S-9, PHENOBARBITAL AND BETA-NAPHTHOFLAVONE (40%), Method: GAS EXPOSURE): inactive; negative
mutagenic call (Test System: Mouse lymphoma, Strain/Indicator: L5178Y (tk+/tk-), Metabolic Activation: None, Method: Suspension/plate): inactive; negative
mutagenic call (Test System: Mouse lymphoma, Strain/Indicator: L5178Y (tk+/tk-), Metabolic Activation: Rat, Liver, S-9, Aroclor 1254, Method: Suspension/plate): inactive; inconclusive (previous evaluation negative)

N#CCc1ccc(Cl)cc1
mutagenic call [3]: inactive; negative
mutagenic call (Test System: AMES SALMONELLA TYPHIMURIUM, Strain/Indicator: TA98, Metabolic Activation: RAT, LIVER, S-9, PHENOBARBITAL AND BETA-NAPHTHOFLAVONE, Method: PREINCUBATION): inactive; negative
mutagenic call [4]: inactive; negative
mutagenic call (Test System: AMES SALMONELLA TYPHIMURIUM, Strain/Indicator: TA100, Metabolic Activation: RAT, LIVER, S-9, PHENOBARBITAL AND BETA-NAPHTHOFLAVONE, Method: PREINCUBATION): inactive; negative
mutagenic call (Test System: AMES SALMONELLA TYPHIMURIUM, Strain/Indicator: TA102, Metabolic Activation: NONE, Method: PREINCUBATION): inactive; negative
mutagenic call (Test System: AMES SALMONELLA TYPHIMURIUM, Strain/Indicator: TA102, Metabolic Activation: RAT, LIVER, S-9, SODIUM PHENOBARBITAL AND 5,6-BENZOFLAVONE, Method: PREINCUBATION): inactive; negative
mutagenic call (Test System: AMES SALMONELLA TYPHIMURIUM, Strain/Indicator: TA104, Metabolic Activation: NONE, Method: PREINCUBATION): inactive; negative
mutagenic call (Test System: AMES SALMONELLA TYPHIMURIUM, Strain/Indicator: TA104, Metabolic Activation: RAT, LIVER, S-9, SODIUM PHENOBARBITAL AND 5,6-BENZOFLAVONE, Method: PREINCUBATION): inactive; negative
mutagenic call [5]: inactive; negative
mutagenic call (Test System: AMES SALMONELLA TYPHIMURIUM, Strain/Indicator: TA1535, Metabolic Activation: RAT, LIVER, S-9, PHENOBARBITAL AND BETA-NAPHTHOFLAVONE, Method: PREINCUBATION): inactive; negative
mutagenic call [6]: inactive; negative
mutagenic call (Test System: AMES SALMONELLA TYPHIMURIUM, Strain/Indicator: TA1537, Metabolic Activation: RAT, LIVER, S-9, PHENOBARBITAL AND BETA-NAPHTHOFLAVONE, Method: PREINCUBATION): inactive; negative
mutagenic call (Test System: E. COLI, Strain/Indicator: WP2UVRA/PKM101, Metabolic Activation: NONE, Method: PREINCUBATION): inactive; negative
mutagenic call (Test System: E. COLI, Strain/Indicator: WP2UVRA/PKM101, Metabolic Activation: RAT, LIVER, S-9, PHENOBARBITAL AND BETA-NAPHTHOFLAVONE, Method: PREINCUBATION): inactive; negative
mutagenic call (Test System: E. COLI, Strain/Indicator: WP2UVRA, Metabolic Activation: NONE, Method: PREINCUBATION): inactive; negative
mutagenic call (Test System: E. COLI, Strain/Indicator: WP2UVRA, Metabolic Activation: RAT, LIVER, S-9, PHENOBARBITAL AND BETA-NAPHTHOFLAVONE, Method: PREINCUBATION): inactive; negative
